We go through four compounds from patent US5998397A, “Gallium complexes of 3-Hydroxy-4-pyrones to treat or prevent bone disease” (priority 1998, dated 1999).

Series [1] is described as follows: Oral bioavailability study in rabbits (serum gallium by graphite furnace atomic absorption). The format is in vivo, New Zealand white rabbits. The conditions noted are these: oral gavage; for Mean gallium content of rabbit serum: 4 ml per kg, 10 mg elemental gallium per 4 ml, fasted 18 hours, 3 animals. The protocol:
A test of the oral bioavailability of the 3:1 ethyl maltol:gallium complex in rabbits was conducted. In this test, the complex was given to rabbits and compared to a solution of gallium nitrate. Six female New Zealand white rabbits weighing between 2.68 and 2.91 kg were used, and were not fed for 18 hours before starting the experiment. A suspension of the 3:1 gallium ethyl maltol complex in double distilled water was prepared with a concentration of 10 mg elemental gallium per 4 ml of suspension. […] A small amount of solid sodium carbonate was added to the latter solution to bring the pH up to about 6. Each of the two solutions was given to three rabbits by oral gavage (through a tube inserted through the mouth to the stomach) in the amount of 4 ml per kg of body weight. The stomach tubes were flushed by three ml of water following administration of the solutions.
Six ml of blood was taken from each, rabbit at 1 hour, 2 hours, 4 hours, 8 hours, and 24 hours following administration of the solutions, and the serum separated and frozen. Control samples of blood were taken 24 hours earlier. The frozen serum samples were then sent to an independent testing laboratory for determination of the gallium contents by graphite furnace atomic absorption analysis. The testing laboratory received numbered serum samples, and never had any knowledge of the experimental conditions used to produce the samples. Due to uncertainties in the analytical procedures for gallium in serum, the relative proportions of gallium in the serum samples are considered more significant than the actual reported concentrations.

Series [2] is described as follows: Solubility in distilled deionized water. An excerpt: Under some conditions, water may also be incorporated into the structure.
The format of series [3] is physicochemical. The protocol: The complex was studied at two concentrations in double distilled deionized water: […]. The pH was adjusted by adding either 1N HCl or 1N Na2 CO3. The stability of the complex was determined using ultraviolet spectroscopy over the region 200-450 nm at 25° C. […] An isobesic point occurs over much of the pH range at about 290 nm. In the very dilute solutions (2.5×10^-6 M), the neutral 3:1 complex appears to be stable from about pH 4.5 to 9.5. For the less dilute solutions (1.0×10^-2 M), the determination was more difficult due to the very high absorbance.

Another series concerns rabbits. The conditions noted are these: rabbit, in vivo; cited from earlier work.

Regarding `CCc1occc(=O)c1[O][Ga]([O]c1c(CC)occc1=O)[O]c1c(CC)occc1=O` [Gallium Ethyl Maltol, 3:1 complex of ethyl maltol and gallium], the “Mean gallium content of rabbit serum” value in series [1] (1 hour) amounted to 90 ng/mL; in series [1] (2 hours) it was 274 ng/mL; in series [1] (4 hours), 260 ng/mL; in series [1] (8 hours), 212 ng/mL; in series [1] (24 hours), 84 ng/mL. Also, the “Oral absorption compared with gallium nitrate” value in series [1] (rabbits, equal volume and gallium concentration, stomach acid not counteracted) is on record as “absorbed in significantly higher amounts than the gallium nitrate suspension”. Also, in series [2] (distilled deionized water, 23° C.), the Solubility result is recorded as “about 5 millimolar”.

Consider `Cc1occc(=O)c1[O-].Cc1occc(=O)c1[O-].Cc1occc(=O)c1[O-].[Ga+3]` [Gallium Maltol], for which the Solubility entry in series [2] (water) is “about 24 millimolar”. Also, in series [3], the “pH stability region of the neutral 3:1 complex (in words)” value was “very similar to that of the highly dilute solution, possibly slightly wider”.

Regarding `Cc1occc(=O)c1[O][Al]([O]c1c(C)occc1=O)[O]c1c(C)occc1=O` [aluminum maltol complex], the Neurotoxicity entry in the series with rabbits is on record as “highly neurotoxic”.

`O=[N+]([O-])[O-].O=[N+]([O-])[O-].O=[N+]([O-])[O-].[Ga+3]` [gallium nitrate, reference compound]: the “Mean gallium content of rabbit serum” value in series [1] (1 hour) turned out to be 51 ng/mL; in series [1] (2 hours) it was 99 ng/mL; in series [1] (4 hours), 118 ng/mL; in series [1] (8 hours), 103 ng/mL; in series [1] (24 hours), 64 ng/mL.
